US5239082A, “Sulfonamide tetrazole ACAT inhibitors” (Warner-Lambert Company, priority 1992, dated 1993)

Tests used:
[1] = target: T1, acyl-CoA: cholesterol acyltransferase (ACAT) (Oryctolagus cuniculus, UniProt G1SFD9); assay: in vitro ACAT inhibition test (IAI), radiolabeled cholesterol oleate formed from radiolabeled oleic acid in rabbit intestinal microsomes; type: biochemical; conditions: inhibition of acylation of cholesterol by oleic acid
T1 construct: tissue preparation containing rabbit intestinal microsomes; from tissue; host or cells: rabbit intestinal microsomes
T1 sequence (G1SFD9 1-524): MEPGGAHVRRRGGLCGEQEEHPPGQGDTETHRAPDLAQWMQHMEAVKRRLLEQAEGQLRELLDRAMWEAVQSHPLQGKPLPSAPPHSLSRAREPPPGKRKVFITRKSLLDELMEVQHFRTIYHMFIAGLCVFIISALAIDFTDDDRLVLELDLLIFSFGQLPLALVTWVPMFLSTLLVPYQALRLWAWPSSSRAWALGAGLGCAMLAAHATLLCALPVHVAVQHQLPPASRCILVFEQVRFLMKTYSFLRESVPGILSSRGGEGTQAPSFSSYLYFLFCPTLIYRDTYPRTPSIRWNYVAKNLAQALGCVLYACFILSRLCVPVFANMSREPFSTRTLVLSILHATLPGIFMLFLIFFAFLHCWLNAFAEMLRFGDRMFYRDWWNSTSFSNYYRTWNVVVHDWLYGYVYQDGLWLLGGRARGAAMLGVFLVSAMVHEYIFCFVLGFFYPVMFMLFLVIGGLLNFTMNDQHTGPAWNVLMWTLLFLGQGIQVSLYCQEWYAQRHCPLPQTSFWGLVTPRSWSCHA
Protocol: The ability of representative compounds of the present invention to inhibit ACAT was measured using an in vitro test more fully described in Field FJ, Salone RG. Biochemica et Biophysica 1982;712:557-70. The test assesses the ability of a test compound to inhibit the acylation of cholesterol by oleic acid by measuring the amount of radiolabeled cholesterol oleate formed from radiolabeled oleic acid in a tissue preparation containing rabbit intestinal microsomes.
The data appear in Table 1 where they are expressed as IC50 values; i.e., the concentration of test compound required to inhibit the activity of the enzyme by 50%.

[2] = in vivo screen designated APCC, rats on high fat, high cholesterol diet with 0.5% cholic acid, blood cholesterol; parameters: species or system male Sprague-Dawley rats; conditions: Rattus norvegicus, 16 h, dosed at 4 PM in CMC/Tween, sacrificed at 8 AM, high cholesterol diet overnight, read-out: APCC (% ΔTC)
Excerpt: In one in vivo screen designated APCC, male Sprague-Dawley rats (200 to 225 g) were randomly divided into treatment groups and dosed at 4 PM with either vehicle (CMC/Tween) or suspensions of compounds in vehicle. The normal chow diet was then replaced with a high fat, high cholesterol diet with 0.5% cholic acid. The rats consumed this diet ad libitum during the night and were sacrificed at 8 AM to obtain blood samples for cholesterol analysis using standard procedures. Statistical differences between mean cholesterol values for the same vehicle were determined using analysis of variance followed by Fisher's least significant test. The results of this trial for representative compounds of the present invention also appear in Table 1.

Row | SMILES | IC50 [1] [nM] | change in vivo at 30 mg/kg [2] [%]
1 | CCCCCCCCn1nnc(CS(=O)(=O)Nc2c(C(C)C)cccc2C(C)C)n1 [Example 4, N-[2,6-bis(1-methylethyl)phenyl]-2-octyl-2H-tetrazole-5-methanesulfonamide] | 750 | -14
2 | CCCCCCCCCCCCn1nnc(C(C)(C)S(=O)(=O)Nc2c(C(C)C)cccc2C(C)C)n1 [Example 9, N-[2,6-Bis(1-methylethyl)phenyl]-2-dodecyl-α,α-dimethyl-2H-tetrazole-5-methanesulfonamide] | 40 | -53
3 | CCCCCCCCCCCCn1nnc(CS(=O)(=O)Nc2c(OC)cc(OC)cc2OC)n1 [Example 7, N-(2,4,6-trimethoxyphenyl)-2-dodecyl-2H-tetrazole-5-methanesulfonamide] | 180 | -60
4 | CCCCCCCCCCCCn1nnnc1CS(=O)(=O)Nc1c(OC)cc(OC)cc1OC [Example 8, N-(2,4,6-trimethoxyphenyl)-1-dodecyl-1H-tetrazole-5-methanesulfonamide] | 3700 | -30
5 | CCCCCCCCCCCCn1nnnc1CS(=O)(=O)Nc1c(C(C)C)cccc1C(C)C [Example 6, N-[2,6-bis(1-methylethyl)phenyl]-1-dodecyl-1H-tetrazole-5-methanesulfonamide] | 1200 | -41

Further lines, with some results ahead:

Row | IC50 [1] [nM] | SMILES | change in vivo at 30 mg/kg [2] [%]
6 | 600 | CCCCCCCCCCCCCCCCn1nnc(CS(=O)(=O)Nc2c(C(C)C)cccc2C(C)C)n1 [Example 2, N-[2,6-bis(1-methylethyl)phenyl]-2-hexadecyl-2H-tetrazole-5-methanesulfonamide] | -20
7 | 222 | CCCCCCCCCCCCn1nnc(CS(=O)(=O)Nc2c(C(C)C)cccc2C(C)C)n1 [Example 1, N-[2,6-Bis(1-methylethyl)phenyl]-2-dodecyl-2H-tetrazole-5-methanesulfonamide] | -61
8 | 150 | CCCCCCCCCCCCCCn1nnc(CS(=O)(=O)Nc2c(C(C)C)cccc2C(C)C)n1 [Example 3, N-[2,6-bis(1-methylethyl)phenyl]-2-tetradecyl-2H-tetrazole-5-methanesulfonamide] | -42
9 | 7600 | CCCCCCCCCCCCCCCCCCn1nnc(CS(=O)(=O)Nc2c(C(C)C)cccc2C(C)C)n1 [Example 5, N-[2,6-bis(1-methylethyl)phenyl]-2-octadecyl-2H-tetrazole-5-methanesulfonamide] | -31
